From paper PMC12615753, “Glutathione as a taste modulator: molecular mechanisms of interaction with umami and sweet taste receptors” (Food Chemistry: Molecular Sciences, 2025)

Target: T1, hTAS1R1 Q278A/rTAS1R3 (Homo sapiens, UniProt Q7RTX1, Q278A)
T1 construct: expressed in transfected cells; host or cells: HEK293T/17 (ATCC CRL-11268)
T1 sequence (Q7RTX1 21-841 Q278A): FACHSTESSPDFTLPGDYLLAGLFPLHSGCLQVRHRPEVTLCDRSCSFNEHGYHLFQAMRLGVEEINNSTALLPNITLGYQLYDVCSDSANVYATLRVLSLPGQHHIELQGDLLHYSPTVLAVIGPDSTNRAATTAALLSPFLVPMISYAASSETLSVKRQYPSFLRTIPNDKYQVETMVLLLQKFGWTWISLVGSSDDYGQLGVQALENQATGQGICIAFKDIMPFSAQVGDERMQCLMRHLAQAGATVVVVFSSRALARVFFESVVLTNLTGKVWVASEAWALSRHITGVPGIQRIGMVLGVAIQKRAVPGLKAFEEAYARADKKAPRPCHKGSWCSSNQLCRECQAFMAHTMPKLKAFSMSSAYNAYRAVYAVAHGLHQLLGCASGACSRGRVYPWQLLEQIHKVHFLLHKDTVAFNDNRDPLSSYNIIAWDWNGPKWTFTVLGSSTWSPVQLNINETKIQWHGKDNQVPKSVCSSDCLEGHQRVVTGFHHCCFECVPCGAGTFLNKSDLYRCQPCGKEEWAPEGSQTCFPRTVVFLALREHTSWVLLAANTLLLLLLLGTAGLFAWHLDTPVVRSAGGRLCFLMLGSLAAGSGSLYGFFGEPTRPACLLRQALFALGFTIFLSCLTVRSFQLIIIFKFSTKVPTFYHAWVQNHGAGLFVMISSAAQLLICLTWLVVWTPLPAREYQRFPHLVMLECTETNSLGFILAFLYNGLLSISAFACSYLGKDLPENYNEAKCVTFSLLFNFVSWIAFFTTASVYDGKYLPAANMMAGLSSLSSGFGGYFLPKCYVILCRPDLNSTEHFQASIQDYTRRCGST
T1 sequence (Q923K1 21-858 partner): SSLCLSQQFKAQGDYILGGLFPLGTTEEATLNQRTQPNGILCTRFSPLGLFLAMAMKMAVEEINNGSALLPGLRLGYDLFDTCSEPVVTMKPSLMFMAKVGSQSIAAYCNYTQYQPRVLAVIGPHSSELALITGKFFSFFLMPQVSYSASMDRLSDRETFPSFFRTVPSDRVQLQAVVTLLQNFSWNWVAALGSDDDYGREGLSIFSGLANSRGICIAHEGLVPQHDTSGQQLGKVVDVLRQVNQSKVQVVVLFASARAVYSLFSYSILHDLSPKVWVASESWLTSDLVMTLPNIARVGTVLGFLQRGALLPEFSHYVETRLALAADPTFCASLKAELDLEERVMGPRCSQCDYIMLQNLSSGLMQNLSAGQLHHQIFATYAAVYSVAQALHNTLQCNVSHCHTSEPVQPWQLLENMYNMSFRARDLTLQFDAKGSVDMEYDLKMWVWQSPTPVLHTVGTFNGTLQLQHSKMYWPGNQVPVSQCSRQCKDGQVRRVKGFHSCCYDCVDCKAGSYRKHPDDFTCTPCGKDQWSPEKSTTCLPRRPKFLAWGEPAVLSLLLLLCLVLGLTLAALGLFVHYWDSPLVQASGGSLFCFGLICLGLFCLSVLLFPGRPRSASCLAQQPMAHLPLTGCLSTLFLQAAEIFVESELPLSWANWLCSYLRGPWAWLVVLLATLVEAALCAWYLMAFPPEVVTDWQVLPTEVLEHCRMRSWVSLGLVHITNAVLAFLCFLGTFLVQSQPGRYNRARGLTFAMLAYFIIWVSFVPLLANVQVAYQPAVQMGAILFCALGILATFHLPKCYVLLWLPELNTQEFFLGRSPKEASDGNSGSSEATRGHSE
Assay: Calcium assay, hTAS1R1 mutant co-expressed with rTAS1R3
Type: cell-based, rat

N[C@@H](CCC(=O)N[C@@H](CS)C(=O)NCC(=O)O)C(=O)O [GSH, γ-L-glutamyl-L-cysteinyl-glycine]
EC50: 3.42 ± 0.073 mM
effect of the added compound (1 mM) on the response to L-Glu (Q278A): synergy was observed
response to the agonist alone, vs WT (Q278A): significantly increased the initial amplitude
Max ∆F/F0 (Q278A, GSH): 1.46 ± 0.01
R1 = mutant EC50/WT EC50 (Q278A, GSH): 1.4
